{
  "source": "patent US10342233B2",
  "about": "“Control of aquatic weeds using combinations of 4-amino-3-chloro-6-(4-chloro-2-fluoro-3-methoxyphenyl)pyridine-2-carboxylic acids and other aquatic herbicides” (Dow AgroSciences LLC, priority 2015, dated 2019)",
  "format_in_all_cases": "in vivo",
  "key": {"[1]": {"system": "Echinochloa oryzoides (Ard.) Fritsch (early watergrass)", "experiment": "Greenhouse in-water herbicidal activity, flooded pot system", "conditions": "ECHOR 2-3 lf (20-30% submerged), 20 DAA", "method": "(§1) Weed seeds, nutlets, or vegetative cuttings of the desired test plant species were planted in puddled soil (mud) prepared by mixing a shredded, non-sterilized mineral soil (50.5 percent silt, 25.5 percent clay, and 24 percent sand, with a pH of approximately 7.6 and an organic matter content of approximately 2.9 percent) and water at a 1:1 volumetric ratio. The prepared mud was dispensed in 365 milliliter (mL) aliquots into 480 mL non-perforated plastic pots with a surface area of 86.59 square centimeters (cm^2) leaving a headspace of 3 centimeters (cm) in each pot. Mud was allowed to dry overnight prior to planting or transplanting.\nThe aquatic environment was created by filling the 3 cm headspace of the pots with water. When required to ensure good germination and healthy plants, a fungicide treatment and/or other chemical or physical treatment was applied. The plants were grown for 4-20 days in a greenhouse with an approximate 14 hour (h) photoperiod which was maintained at about 29° C. during the day and about 26° C. during the night. Nutrients were added as Osmocote® (19:6:12, N:P:K+minor nutrients) at 2 grams (g) per 480 mL pot. […]\nTreatment requirements for each compound or herbicidal component were calculated based upon the rates being tested, the concentration of active ingredient or acid equivalent in the formulation, and a treatment application volume of 2 mL per compound per pot.\nMeasured amounts of formulated compounds were placed in individual glass vials and were dissolved in an aliquot of an aqueous mixture containing 1.25% volume per volume (v/v) Agri-Dex® crop oil concentrate. […]\n(§2) The treated plants and control plants were placed in a greenhouse as described above and water was added as needed to maintain a flood in the pot. After approximately 20 days after application (DAA), the condition of the test plants, compared with that of the untreated plants, was determined visually and scored on a scale of 0 to 100 percent where 0 corresponds to no injury or growth reduction and 100 corresponds to complete kill."}, "[2]": {"system": "Leptochloa chinensis (L.) Nees (Chinese sprangletop)", "conditions": "LEFCH 5 lf (30% submerged), 20 DAA", "method": "as §1\n(§3) The aquatic environment was created by filling the 3 cm headspace of the pots with water. […] The plants were grown for 4-20 days in a greenhouse with an approximate 14 hour (h) photoperiod which was maintained at about 29° C. during the day and about 26° C. during the night. Nutrients were added as Osmocote® (19:6:12, N:P:K+minor nutrients) at 2 grams (g) per 480 mL pot. Water was added on a regular basis to maintain the paddy flood, and supplemental lighting was provided with overhead metal halide 1000-Watt lamps as necessary. The plants were employed for testing when they reached the second through fifth true leaf stage or 5th node stage.\n(§4) Treatments consisted of the benzyl ester of 4-amino-3-chloro-5-fluoro-6-(4-chloro-2-fluoro-3-methoxy-phenyl)pyridine-2-carboxylic acid (Compound II) formulated as a suspension concentrate (SC) and various herbicidal components alone and in combination.\n(§5) Measured amounts of formulated compounds were placed in individual glass vials and were dissolved in an aliquot of an aqueous mixture containing 1.25% volume per volume (v/v) Agri-Dex® crop oil concentrate. A stock solution was prepared for each treatment concentration. Applications were made by injecting an appropriate amount of the application solution into the aqueous layer of the flooded greenhouse pot. Control plants were treated in the same manner with the solvent blank.\nas §2"}, "[3]": {"system": "Ischaemum rugosum Salisb. (saramollagrass)", "method": "as §1, §3, §4, §5, §2"}, "[4]": {"system": "Echinochloa crus-galli (L.) P. Beauv. (barnyardgrass)", "conditions": "ECHCG 2-5 lf (30% submerged), 20 DAA", "method": "as §1, §3, §4, §5, §2"}, "[5]": {"system": "Cyperus esculentus L. (yellow nutsedge)", "experiment": "Greenhouse in-water herbicidal activity, flooded pot system", "conditions": "CYPES 4 lf (30% submerged), 20 DAA", "method": "as §1, §3, §4, §5, §2"}, "[6]": {"system": "Alternanthera philoxeroides (Mart.) Griseb. (alligatorweed)", "experiment": "Greenhouse in-water herbicidal activity, flooded pot system", "conditions": "ALRPH 5 node, 20 DAA", "method": "as §1, §3, §4, §5, §2"}, "[7]": {"conditions": "4200 ppb (elemental copper basis) in water"}, "[8]": {"conditions": "8300 ppb (elemental copper basis) in water"}, "[9]": {"conditions": "2100 ppb (elemental copper basis) in water"}},
  "note": "Read-outs that look alike come from different tables or passages of the source.",
  "data": [
    {"compound": "COc1c(Cl)ccc(-c2nc(C(=O)OCc3ccccc3)c(Cl)c(N)c2F)c1F", "note": "[Compound II, benzyl 4-amino-3-chloro-5-fluoro-6-(4-chloro-2-fluoro-3-methoxyphenyl)pyridine-2-carboxylate]", "values": [
      {"measurement": "Compound II Mean % Weed Control", "setting": "[1]; 33.3 ppb in water", "value": 25.0, "unit": "%"},
      {"measurement": "Compound II Mean % Weed Control", "setting": "[1]; 133.4 ppb in water", "value": 78.0, "unit": "%"},
      {"measurement": "Compound II Mean % Weed Control", "setting": "[2]; 66.6 ppb in water", "value": 20.0, "unit": "%"},
      {"measurement": "Compound II Mean % Weed Control", "setting": "[3]; ISCRU 2-3 lf (30-50% submerged), 66.6 ppb in water, 20 DAA", "value": 75.0, "unit": "%"},
      {"measurement": "Compound II Mean % Weed Control", "setting": "[3]; ISCRU 2-3 lf (30-50% submerged), 133.4 ppb in water, 20 DAA", "value": 85.0, "unit": "%"},
      {"measurement": "Compound II Mean % Weed Control", "setting": "[4]; 33.25 ppb in water", "value": 65.0, "unit": "%"},
      {"measurement": "Compound II Mean % Weed Control", "setting": "[5]; 33.25 ppb in water", "value": 18.0, "unit": "%"},
      {"measurement": "Compound II Mean % Weed Control", "setting": "[5]; 33.3 ppb in water", "value": 18.0, "unit": "%"},
      {"measurement": "Compound II Mean % Weed Control", "setting": "[5]; 66.6 ppb in water", "value": 68.0, "unit": "%"},
      {"measurement": "Compound II Mean % Weed Control", "setting": "[6]; 33.25 ppb in water", "value": 55.0, "unit": "%"},
      {"measurement": "Compound II Mean % Weed Control", "setting": "[6]; 33.3 ppb in water", "value": 55.0, "unit": "%"},
      {"measurement": "Compound II Mean % Weed Control", "setting": "[6]; 66.6 ppb in water", "value": 68.0, "unit": "%"}
    ]},
    {"compound": "c1cc[n+]2c(c1)-c1cccc[n+]1CC2", "note": "[Diquat Dibromide, 9,10-dihydro-8a,10a-diazoniaphenanthrene]", "values": [
      {"measurement": "Diquat Dibromide Mean % Weed Control", "setting": "[1]; 900 ppb in water", "value": 0.0, "unit": "%"},
      {"measurement": "Diquat Dibromide Mean % Weed Control", "setting": "[3]; in vivo", "value": 0.0, "unit": "%"}
    ]},
    {"compound": "O=C(O)C1C2CCC(O2)C1C(=O)O", "note": "(centres unmarked) [Endothal, 7-oxabicyclo[2.2.1]heptane-2,3-dicarboxylic acid]", "values": [
      {"measurement": "Endothal Mean % Weed Control", "setting": "[3]; ISCRU 2-3 lf (30-50% submerged), 1120 ppb in water, 20 DAA", "value": 0.0, "unit": "%"},
      {"measurement": "Endothal Mean % Weed Control", "setting": "[3]; ISCRU 2-3 lf (30-50% submerged), 4480 ppb in water, 20 DAA", "value": 0.0, "unit": "%"},
      {"measurement": "Endothal Mean % Weed Control", "setting": "[5]; 1120 ppb in water", "value": 0.0, "unit": "%"},
      {"measurement": "Endothal Mean % Weed Control", "setting": "[5]; 4480 ppb in water", "value": 0.0, "unit": "%"},
      {"measurement": "Endothal Mean % Weed Control", "setting": "[6]; 1120 ppb in water", "value": 0.0, "unit": "%"},
      {"measurement": "Endothal Mean % Weed Control", "setting": "[6]; 4480 ppb in water", "value": 0.0, "unit": "%"},
      {"measurement": "Endothal Mean % Weed Control", "setting": "[6]; 8960 ppb in water", "value": 0.0, "unit": "%"}
    ]},
    {"compound": "Cn1cc(-c2ccccc2)c(=O)c(-c2cccc(C(F)(F)F)c2)c1", "note": "[Fluridone, 1-methyl-3-phenyl-5-(α,α,α-trifluoro-m-tolyl)-4-pyridone]", "values": [
      {"measurement": "Fluridone Mean % Weed Control", "setting": "[3]; ISCRU 2-3 lf (30-50% submerged), 10 ppb in water, 20 DAA", "value": 10.0, "unit": "%"},
      {"measurement": "Fluridone Mean % Weed Control", "setting": "[3]; ISCRU 2-3 lf (30-50% submerged), 45 ppb in water, 20 DAA", "value": 10.0, "unit": "%"},
      {"measurement": "Fluridone Mean % Weed Control", "setting": "[5]; 10 ppb in water", "value": 0.0, "unit": "%"},
      {"measurement": "Fluridone Mean % Weed Control", "setting": "[5]; 45 ppb in water", "value": 0.0, "unit": "%"},
      {"measurement": "Fluridone Mean % Weed Control", "setting": "[5]; 90 ppb in water", "value": 0.0, "unit": "%"},
      {"measurement": "Fluridone Mean % Weed Control", "setting": "[6]; 180 ppb in water", "value": 65.0, "unit": "%"}
    ]},
    {"compound": "copper(II) sulfate [Copper Sulfate]", "values": [
      {"measurement": "Copper Sulfate Mean % Weed Control", "setting": "[5]; 300 ppb in water", "value": 0.0, "unit": "%"},
      {"measurement": "Copper Sulfate Mean % Weed Control", "setting": "[5]; 600 ppb in water", "value": 0.0, "unit": "%"},
      {"measurement": "Copper Sulfate Mean % Weed Control", "setting": "[6]; 300 ppb in water", "value": 0.0, "unit": "%"},
      {"measurement": "Copper Sulfate Mean % Weed Control", "setting": "[6]; 600 ppb in water", "value": 0.0, "unit": "%"},
      {"measurement": "Copper Sulfate Mean % Weed Control", "setting": "[6]; 900 ppb in water", "value": 0.0, "unit": "%"}
    ]},
    {"compound": "mixed copper ethanolamine complex", "values": [
      {"measurement": "Mixed Copper Ethanolamine Complex Mean % Weed Control", "setting": "[2]; [7]", "value": 0.0, "unit": "%"},
      {"measurement": "Mixed Copper Ethanolamine Complex Mean % Weed Control", "setting": "[2]; [8]", "value": 0.0, "unit": "%"},
      {"measurement": "Mixed Copper Ethanolamine Complex Mean % Weed Control", "setting": "[3]; ISCRU 2-3 lf (30-50% submerged), 8300 ppb (elemental copper basis) in water, 20 DAA", "value": 0.0, "unit": "%"},
      {"measurement": "Mixed Copper Ethanolamine Complex Mean % Weed Control", "setting": "[4]; [9]", "value": 0.0, "unit": "%"},
      {"measurement": "Mixed Copper Ethanolamine Complex Mean % Weed Control", "setting": "[4]; [7]", "value": 0.0, "unit": "%"},
      {"measurement": "Mixed Copper Ethanolamine Complex Mean % Weed Control", "setting": "[4]; [8]", "value": 0.0, "unit": "%"},
      {"measurement": "Mixed Copper Ethanolamine Complex Mean % Weed Control", "setting": "[6]; [9]", "value": 0.0, "unit": "%"},
      {"measurement": "Mixed Copper Ethanolamine Complex Mean % Weed Control", "setting": "[6]; [7]", "value": 0.0, "unit": "%"},
      {"measurement": "Mixed Copper Ethanolamine Complex Mean % Weed Control", "setting": "[6]; [8]", "value": 0.0, "unit": "%"}
    ]}
  ]
}
